For two substances, Kd results are on record in publication PMC11181022, “The molecular architecture of Lactobacillus S-layer: Assembly and attachment to teichoic acids” (Proceedings of the National Academy of Sciences of the …, 2024).

For orientation: Kd means the constant that tells how readily two partners part at equilibrium.

The assay has as its target T1, SlpA_amy_III (SlpA_amy_D3) (Lactobacillus amylovorus, UniProt E4SK47).
T1 construct: gene LA2_00970; His-tagged, 15N-labelled, expressed in E. coli BL21 DE
T1 sequence (E4SK47 322-456): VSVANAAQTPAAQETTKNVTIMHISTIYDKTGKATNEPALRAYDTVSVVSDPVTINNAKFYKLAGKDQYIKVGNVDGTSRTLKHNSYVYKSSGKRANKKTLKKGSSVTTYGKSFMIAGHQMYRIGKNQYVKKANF
Briefly: 1H-15N HSQC NMR titration, mean Kd of per-residue shift fits. The settings on record: 20 mM ADA, 50 mM NaCl, pH 6.5, 25 C, two binding areas TAB1 and TAB2.

On to GroP pentamer, for which, under “200 uM protein”, the Kd is 500 µM.

As for GroP trimer, the Kd (300 uM protein) is 3500 µM.
